Where a name gives a salt, the structure may show the parent alone.
test system: Guinea Pig Ileum; assay: Guinea pig ileum assay - tonic contraction (K+-induced contraction of longitudinal muscle; calcium channel blocking activity); assay type: cell-based; conditions: Cavia porcellus
Method: GUINEA PIG ILEUM ASSAY--TONIC CONTRACTION
Male guinea-pigs weighing from 300-400 grams were stunned and bled. The abdomen was opened and 10-15 cm of terminal ileum was carefully removed and cleaned and placed in Tyrode's Solution of the following composition: NaCl (8 g/l), KCl (0.2 g/l), MgCl2 (0.2 g/l.), CaCl2 (0.2 g/l), NaH2 PO4 (0.05 g/l), NaHCO3 (1.0 g/l) and Glucose (1 g/l). The solution was maintained at 37° C. and gassed with 95% O2 and 5% CO2. Portions of the ileum were placed over a glass rod, a shallow incision was made the length of the mesenteric attachment just severing the outer-longitudinal muscle layer. The longitudinal muscle was separated from the underlying circular muscle by gentle dissection (Rang, H. P. Annals of N.Y. Academy of Science Vol. 144, page 756, (1964)). The tissue was fixed at one end to a tissue holder, the other end was connected by a thread to a force transducer and suspended in a muscle bath containing Tyrode's Solution maintained at 37° C. and gassed with 95% O2 and 5% CO2. An initial tension of 500 mg was applied and the tissue allowed to equilibrate for 60 minutes prior to the start of the study. During this period the tissue was washed every 16 minutes. Each preparation, at 16 minute intervals, was challenged with KCl sufficient to yield a bath K^+ concentration of 80 mMK for 2 minutes, then washed with fresh solution. The 16 minute interval between K^+ challenges was maintained throughout the study. Upon stabilization of the responses to the K^+ challenge the test compound (potential calcium entry antagonist) was introduced into the bath 2 minutes prior to and during the 2 minute exposure to K^+ after which the bath was cleared and washed with fresh solution. Logarithmically increasing doses (up to 10^-4 M) of the potential antagonist were administered as the study progressed.
The measure of compound's ability to inhibit the tonic contraction of muscle is a measure of its activity as a calcium channel blocking agent.

Row | IC50 [nM] | SMILES
1 | 400 | COc1ccc([C@@H]2Sc3ccc4ccccc4c3N(CCN(C)C)C(=O)[C@@H]2O)cc1 (relative stereo) [A, cis-rac-2,3-dihydro-3-hydroxy-5-[2-(dimethylamino)ethyl]-2-(4-methoxyphenyl)naphtho[2,1-b][1,4]thiazepin-4(5H)-one hydrochloride]
2 | 390 | COc1ccc([C@@H]2Sc3ccc4ccccc4c3N(CCN(C)C)C(=O)[C@@H]2OC(C)=O)cc1 [D, cis-(+)-3-(acetyloxy)-2,3-dihydro-5-[2-(dimethylamino)ethyl]-2-(4-methoxyphenyl)naphtho[2,1-b][1,4]thiazepin-4(5H)-one (E)-2-butendioate]
3 | 450 | COc1ccc([C@@H]2Sc3ccc4ccccc4c3N(CCN(C)C)C(=O)[C@@H]2OC(C)=O)cc1 (relative stereo) [B, cis-rac-3-(acetyloxy)-2,3-dihydro-5-[2-(dimethylamino)ethyl]-2-(4-methoxyphenyl)naphtho[2,1-b][1,4]thiazepin-4(5H)-one (E)-2-butendioate]
4 | 230 | COc1ccc([C@@H]2Sc3ccc4ccccc4c3N(CCN(C)C)C(=O)[C@@H]2O)cc1 [C, cis-(+)-2,3-dihydro-3-hydroxy-5-[2-(dimethylamino)ethyl]-2-(4-methoxyphenyl)naphtho[2,1-b][1,4]thiazepin-4(5H)-one hydrochloride semihydrate]
